{"source": "patent US20110184147A1", "about": "“ENZYME SUBSTRATE FOR LABELING OF PROTEIN” (priority 2008, published 2011)", "molecules": {"B1": {"name": "dual labeled protein: NK6-AP into which Dns-β-Ala-QG-biotin was introduced by MTG catalysis (conjugate)", "chain": "MKHKGSTPEMPVLENRAAQGDITAPGGARRLTGDQTAALRDSLSDKPAKNIILLIGDGMGDSEITAARNYAEGAGGFFKGIDALPLTGQYTHYALNKKTGKPDYVTDSAASATAWSTGVKTYNGALGVDIHEKDHPTILEMAKAAGLATGNVSTAELQDATPAALVAHVTSRKCYGPSATSEKCPGNALEKGGKGSITEQLLNARADVTLGGGAKTFAETATAGEWQGKTLREQAQARGYQLVSDAASLNSVTEANQQKPLLGLFADGNMPVRWLGPKATYHGNIDKPAVTCTPNPQRNDSVPTLAQMTDKAIELLSKNEKGFFLQVEGASIDKQDHAANPCGQIGETVDLDEAVQRALEFAKKEGNTLVIVTADHAHASQIVAPDTKAPGLTQALNTKDGAVMVMSYGNSEEDSQEHTGSQLRIAAYGPHAANVVGLTDQTDLFYTMKAALGLKLEHHHHHH"}}, "key": {"MTG [1]": {"target": "T1, MTG (Streptomyces mobaraensis, UniProt P81453)", "T1 construct": "purchased AJINOMOTO (supplied as a gift)", "T1 sequence (P81453 77-407)": "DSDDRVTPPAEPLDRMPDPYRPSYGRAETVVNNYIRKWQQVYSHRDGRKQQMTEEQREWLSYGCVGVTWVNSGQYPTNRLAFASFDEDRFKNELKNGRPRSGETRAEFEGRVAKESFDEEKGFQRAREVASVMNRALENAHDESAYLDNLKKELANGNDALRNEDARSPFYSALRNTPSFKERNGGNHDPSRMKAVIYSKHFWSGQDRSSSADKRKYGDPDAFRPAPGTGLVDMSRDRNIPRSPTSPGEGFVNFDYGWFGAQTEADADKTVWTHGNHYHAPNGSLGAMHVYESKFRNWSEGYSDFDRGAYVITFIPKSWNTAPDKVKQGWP", "assay": "MTG-catalyzed introduction of fluorescent substrates into NK6-AP (SDS-PAGE, fluorescent imager)", "format": "biochemical, microbial", "settings": "substrate 1 mM, NK6-AP 0.5 mg/ml, MTG 1 U/ml, 10 mM Tris-HCl pH 8, overnight 4° C.; listed as Dns-β-Acp-QG"}, "MTG [2]": {"target": "T1, MTG", "assay": "MTG-catalyzed introduction of fluorescent substrates into NK6-AP (SDS-PAGE, fluorescent imager)", "format": "biochemical, microbial", "settings": "NK6-AP 0.5 mg/ml, MTG 1 U/ml; for Reactivity of MTG for fluorescent substrate (introduction into NK6-AP): substrate 1 mM, 10 mM Tris-HCl pH 8, overnight 4° C.", "method": "To perform a binding reaction, the fluorescent substrate (FITC-ε-Acp-QG, FITC-β-Ala-QG, Flc-QG, TR-β-Ala-QG or Dns-ε-Acp-QG), NK6-AP and MTG were added to 10 mM Tris-HCl (pH 8) to give respective final concentrations of 1 mM, 0.5 mg/ml and 1 U/ml and they were thoroughly agitated and the resulting solution was left to stand overnight at 4° C. For the purpose of comparison, an MTG-free sample was prepared.\nAfter the reaction, the samples were subjected to SDS-polyacrylamide gel electrophoresis (SDS-PAGE). The gel from SDS-PAGE was examined with a fluorescent imager before it was stained with Coomassie Brilliant Blue (CBB) in solution. For the sample containing Dns-ε-Acp-QG, examination was made with a transilluminator.\n(§1) A study was made using FITC-β-Ala-QG as a fluorescent substrate. The reaction conditions for introducing FITC-β-Ala-QG into NK6-AP were as follows: FITC-β-Ala-QG, NK6-AP and MTG were added to 10 mM Tris-HCl (pH 8) to give respective final concentrations of 0.1 mM, 0.5 mg/ml and 0.1 U/ml and they were thoroughly agitated at 4° C. for 0-5 hours. To trace the binding, the gel from SDS-PAGE was analyzed by a fluorescent imager.\nas §1, with “1-1000 μM,” for “0.1 mM,”, “15 minutes. Tracing on” for “0-5 hours. To trace”, “sample after” for “binding,”, “reaction” for “gel from SDS-PAGE”, “performed” for “analyzed”, “the same procedure as in Experiment 2-4.” for “a fluorescent imager.”\nDns-β-Ala-QG-biotin, NK6-AP and MTG were added to 20 mM Tris-HCl (pH 8) to give respective final concentrations of 100 μM, 0.5 mg/ml, and 1 U/ml. For the purpose of comparison, an MTG-free sample was prepared. The ingredients were thoroughly agitated and the resulting solution was left to stand overnight at 4° C. for reaction.\nAfter the reaction, the samples were subjected to SDS-polyacrylamide gel electrophoresis (SDS-PAGE). The gel from SDS-PAGE was examined with a transilluminator before it was stained with Coomassie Brilliant Blue (CBB) in solution.\nTo a 50 mM buffer whose pH was varied over the range of from 5 to 9, FITC-β-Ala-QG, NK6-AP and MTG were added to give respective final concentrations of 0.1 mM, 0.5 mg/ml, and 0.1 U/ml. These ingredients were well stirred and left to stand at 4° C. for reaction. After 6-hr or 15-minute reaction, the sample was mixed with a sample buffer and heated at 95° C. for 15 minutes to stop the reaction. Thereafter, SDS-polyacrylamide gel electrophoresis (SDS-PAGE) was applied. The gel from SDS-PAGE was stained with Coomassie Brilliant Blue (CBB) and observed with a fluorescent imager.\n(§2) To 50 mM Tris-HCl (pH 8), FITC-β-Ala-QG, NK6-AP and MTG were added to give respective final concentrations of 0.1 mM, 0.5 mg/ml, and 0.001-1 U/ml. These ingredients were well stirred and left to stand at 4° C. for reaction. The reaction was stopped and evaluation was made by the same procedures as in Experiment 2-2.\nas §2, with “FITC-β-Ala-QG-alkyne,” for “FITC-β-Ala-QG,”, “0.1” for “0.001-1”, “For the purpose of comparison, a MTG-free sample was also prepared. Both samples” for “These ingredients”"}, "MTG [3]": {"target": "T1, MTG", "assay": "MTG-catalyzed introduction of fluorescent substrates into anti-lysozyme IgG2a antibody", "format": "biochemical, microbial", "settings": "substrate 1 mM, mouse anti-lysozyme IgG2a 0.5 mg/ml, MTG 1 U/ml, pH 7, overnight 4° C.; reduced SDS-PAGE", "method": "A fluorescent substrate (FITC-ε-Acp-QG, FITC-β-Ala-QG, TR-β-Ala-QG or […]), mouse-derived anti-lysozyme IgG2a antibody (monoclonal) and MTG were added to a 10 mM phosphate buffer (pH 7) to give respective final concentrations of 1 mM, 0.5 mg/ml and 1 U/ml. For the purpose of comparison, an MTG-free sample was prepared. The ingredients were thoroughly agitated and the resulting solution was left to stand overnight at 4° C.\nAfter the reaction, the samples were subjected to SDS-PAGE. The gel from SDS-PAGE was examined with a fluorescent imager before it was stained with a CBB dye solution. For the Dns-ε-Acp-QG containing sample, examination was made with a transilluminator."}, "[4]": {"settings": "fluorescein in FITC-β-Ala-QG; cited from earlier work"}, "NK6-AP [5]": {"target": "T2, NK6-AP (Escherichia coli, UniProt P00634)", "T2 construct": "NK6-AP; MKHKGSTPEMP-ALGLKLEHHHHHH; made in house", "T2 sequence (P00634 22-471)": "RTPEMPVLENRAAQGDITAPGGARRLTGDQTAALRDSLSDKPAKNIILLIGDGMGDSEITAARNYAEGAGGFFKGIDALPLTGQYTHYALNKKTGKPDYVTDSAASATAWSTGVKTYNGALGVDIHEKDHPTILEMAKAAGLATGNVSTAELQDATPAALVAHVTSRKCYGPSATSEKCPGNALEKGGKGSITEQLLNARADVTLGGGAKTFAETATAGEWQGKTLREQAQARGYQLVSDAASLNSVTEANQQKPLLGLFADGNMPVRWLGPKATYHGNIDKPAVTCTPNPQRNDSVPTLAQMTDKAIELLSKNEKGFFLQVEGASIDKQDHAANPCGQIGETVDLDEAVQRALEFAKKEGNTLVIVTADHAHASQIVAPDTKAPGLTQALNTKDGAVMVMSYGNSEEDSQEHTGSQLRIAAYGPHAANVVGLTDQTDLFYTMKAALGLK", "assay": "Degree of labeling of dual labeled protein (absorbance at 280 nm and 330 nm)", "settings": "after His-tag purification", "method": "By His-tag purification on a Ni-NTA column, the dual labeled protein was separated from an excess of Dns-β-Ala-QG-biotin. An excess of the imidazole used in the elution step was removed by gel filtration purification on a PD-10 column with 20 mM Tris-HCl (pH 8) being used as an elution buffer.\nThe resulting dual labeled protein was concentrated with a suction-type centrifugal evaporator and an attempt was made to calculate the degree of its labeling by measuring the absorbance at 280 nm and 330 nm."}, "NK6-AP [6]": {"target": "T2, NK6-AP", "assay": "Effect of modification on the enzymatic activity of NK6-AP (p-NPP)", "format": "biochemical", "settings": "AP 28 nM, p-NPP 1 mM, pH 8.0, 27° C., with vs without MTG", "method": "The effect of introduction on the enzymatic activity was studied. In the study, p-nitrophenylphosphoric acid (p-NPP) was used as a substrate and the activities of the samples prepared in Experiment 2-2 were measured; AP would catalyze the dephosphorylation of p-NPP to form p-nitrophenol (p-NP). The reaction conditions for activity measurement were AP 28 nM, p-NPP 1 mM and pH 8.0 and at a controlled temperature of 27° C., the p-NP derived absorption at 410 nm was traced.\n(§3) The activities of the samples prepared in Experiment 2-2 were measured, with p-nitrophenylphosphoric acid (p-NPP) being used as a substrate; AP would catalyze the dephosphorylation of p-NPP to form p-nitrophenol (p-NP). The reaction conditions for activity measurement were AP 28 nM, p-NPP 1 mM and pH 8.0 and at a controlled temperature of 27° C., the p-NP derived absorption at 410 nm was traced.\nas §3, with “With” for “The activities of the samples prepared in Experiment 2-2 were measured, with”, “substrate, the sampled prepared in Experiment 2-4 were measured;” for “substrate;”, “(p-NP) (see below).” for “(p-NP).”"}, "BSA (antigen)": {"system": "BSA (antigen)", "assay": "Antigen recognizing ability by ELISA (rabbit-derived anti-BSA IgG antibody)", "format": "binding", "settings": "rabbit-derived anti-BSA IgG antibody (polyclonal) modified by MTG", "method": "A study was made on samples that were prepared by introducing a fluorescent substrate (FITC-ε-Acp-QG or FITC-β-Ala-QG) into a rabbit-derived anti-BSA IgG antibody (polyclonal) under the same conditions as in Experiment 2-2.\nELISA was performed by the following procedure (FIG. 3-5). • 1) To a Black Plate, 5 mg/ml of BSA (antigen) was added in an amount of 150 µl/well and left to stand overnight at 37° C. • 2) The product of 1) was washed with PBST five times. • 3) Modified anti-BSA IgG antibodies were added in an amount of 60 µl/well and left to stand at room temperature for 5 hours. • 4) The product of 3) was washed with PBST five times. • 5) Examination was made with a fluorescent imager. • 6) A […] sample of AP-labeled anti-rabbit IgG IgG antibodies were added in an amount of 150 µl/well and left to stand at 37° C. for 3 hours. • 7) The product of 6) was washed with TBST five times. • 8) The substrate was added and 10 minutes later, fluorescence derived from the enzymatic reaction was examined with a fluorescent imager."}, "avidin [7]": {"target": "avidin (Gallus gallus, UniProt P02701)", "sequence (P02701 25-152, species assumed)": "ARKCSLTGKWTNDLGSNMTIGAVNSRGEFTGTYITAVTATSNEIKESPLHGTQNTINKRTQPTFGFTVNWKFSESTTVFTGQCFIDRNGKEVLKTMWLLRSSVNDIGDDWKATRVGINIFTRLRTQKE", "settings": "cited from earlier work"}, "avidin [8]": {"system": "avidin", "assay": "Immobilizing the dual labeled protein on avidin-coated microplate", "format": "binding", "settings": "1.5 μM, 37° C., 1 h; dansyl fluorescence and AP activity (ECF)", "method": "2-6. Immobilizing the Dual Labeled Protein on Microplate • 1) After His-tag purification, the dual labeled protein (1.5 μM) was dissolved in 20 mM Tris-HCl (pH 8) and added onto an avidin-coated microplate (product of Nunc) in an amount of 100 μl/well so that it would be immobilized by the interaction between biotin and avidin (37° C., 1 h). • 2) To observe the fluorescence derived from dansyl groups, 20 mM Tris-HCl (pH 8) was added in an amount of 100 μl/well and immobilization was verified by a fluorescent imager. • 3) A solution of ECF as a fluorescent substrate of AP was diluted 100 folds with 1 M Tris-HCl (pH 8) and added onto the plate in an amount of 100 μl/well for reaction with the immobilized AP (25° C., 5 min). (Before steps 2) and 3), a microplate washer was used to wash the plate with TBST (TBS+[…] Tween 20) three times each in an amount of 300 μl/well.)"}}, "note": "“Also recorded” adds a separate entry of the source. Square brackets hold non-standard residues; d marks the D form. Peptide text beside a SMILES is read from it. * marks the point of attachment. ξ: configuration not given here. Dansyl = CN(C)c1cccc2c(S(=O)(=O)*)cccc12; ξQ = NC(=O)CCC(N)C(=O)O; Ahx = NCCCCCC(=O)O"}
{"molecule": "CN(C)c1cccc2c(S(=O)(=O)NCCCCCC(=O)NC(CCC(N)=O)C(=O)NCC(=O)O)cccc12", "note": "(stereo not shown) [Dns-ε-Acp-QG] ({Dansyl-Ahx}-[ξQ]-Gly-OH)", "values": [{"measurement": "Reactivity of MTG for fluorescent substrate (introduction into NK6-AP)", "setting": "MTG [1]", "result": "served as substrates of MTG"}, {"measurement": "Reactivity of MTG for fluorescent substrate (introduction into NK6-AP)", "setting": "MTG [2]", "result": "recognizable as a substrate of MTG"}, {"measurement": "Reactivity of antibody with fluorescent substrate by MTG catalysis", "setting": "MTG [3]", "result": "H chains of the antibody are modified; also recorded: site-specific modification of the H chains in the antibody"}]}
{"molecule": "fluorescein isothiocyanate [FITC]", "values": [{"measurement": "pKa", "setting": "[4]", "result": 6.4}]}
{"molecule": "CN(C)c1cccc2c(S(=O)(=O)NCCC(=O)NC(CCC(N)=O)C(=O)NCC(=O)NCCOCCOCCNC(=O)CCCC[C@@H]3SC[C@@H]4NC(=O)N[C@@H]43)cccc12", "note": "(stereo partly drawn) [Dns-β-Ala-QG-biotin]", "values": [{"measurement": "Degree of labeling (moles of dansyl groups / moles of NK6-AP)", "setting": "NK6-AP [5]", "result": 1.1}, {"measurement": "Reactivity of MTG for dual labeled substrate (introduction into NK6-AP)", "setting": "MTG [2]; substrate 100 μM, 20 mM Tris-HCl pH 8, overnight 4° C.", "result": "had been introduced into NK6-AP; also recorded: confirmed the MTG-catalyzed introduction"}, {"measurement": "Relative activity of NK6-AP after MTG-catalyzed introduction", "setting": "NK6-AP [6]", "result": "hardly any difference in the activity of AP; also recorded: in no way affected by the introduction"}]}
{"molecule": "NC(=O)CCC(NC(=O)CCCCCNC(=S)Nc1ccc(-c2c3ccc(=O)cc-3oc3cc(O)ccc23)c(C(=O)O)c1)C(=O)NCC(=O)O", "note": "(stereo not shown) [FITC-ε-Acp-QG]", "values": [{"measurement": "Reactivity of MTG for fluorescent substrate (introduction into NK6-AP)", "setting": "MTG [2]", "result": "served as substrates of MTG; also recorded: recognizable as a substrate of MTG"}, {"measurement": "Reactivity of antibody with fluorescent substrate by MTG catalysis", "setting": "MTG [3]", "result": "H chains of the antibody are modified; also recorded: site-specific modification of the H chains in the antibody"}, {"measurement": "Antigen recognizing ability of modified antibody", "setting": "BSA (antigen)", "result": "maintained its antigen recognizing ability"}]}
{"molecule": "NC(=O)CCC(NC(=O)c1ccc(-c2c3ccc(=O)cc-3oc3cc(O)ccc23)c(C(=O)O)c1)C(=O)NCC(=O)O", "note": "(stereo not shown) [Flc-QG]", "values": [{"measurement": "Reactivity of MTG for fluorescent substrate (introduction into NK6-AP)", "setting": "MTG [2]", "result": "not recognizable by MTG; also recorded: not recognized as a substrate"}]}
{"molecule": "O=C(O)CCCC[C@@H]1SC[C@@H]2NC(=O)N[C@@H]21", "note": "[biotin]", "values": [{"measurement": "Ka", "setting": "avidin [7]", "result": "10^15 M"}]}
{"molecule": "B1", "values": [{"measurement": "Immobilization on avidin-coated microplate", "setting": "avidin [8]", "result": "immobilized on the microplate while retaining its function"}]}
